The text below walks through data of patent publication US20210323918A1, “COMPOSITIONS AND METHODS FOR SUPPRESSING AND/OR TREATING A GROWTH RELATED DISEASE AND/OR A CLINICAL CONDITION THEREOF” (CK Biotech Inc., priority 2018, published 2021).

The subject of this assay is C28/I2 cells. Kind of assay: Protein and mRNA expression in C28/I2 chondrocyte cells. The assay is classed as cell-based, human. The source says: Cell culture and reagents. The mouse chondrogenic cell line, ATDC5, was obtained from the RIKEN Cell Batik. The human juvenile costal chondrocyte cell line, C28/I2, was provided by Dr. W. U. Kim (Catholic University, Korea). HEK293-TOP cells (HEK293 cells containing the chromosomally incorporated TOPFlash gene) were provided by Dr. S. Oh (Kuk Min University, Korea). ATDCS cells were maintained in DMEM/F12 (1:1) (Gibco, Grand Island, N.Y.) supplemented with 5% FBS (Gibco). To induce hypertrophic differentiation, ATDC5 cells were incubated with insulin-transferrin-sodium selenite (ITS) supplement (Gibco) in three-dimensional alginate beads for 3 days, as previously described. See e.g., Kawasaki Y. et al. (2008), Phosphorylation of GSK-3beta by cGMP-dependent protein kinase II promotes hypertrophic differentiation of murine chondrocytes. J CLIN INVEST 118: 2506-2515. C28/I2 and HEK293-TOP cells were maintained in DMEM (Gibco) containing 10% FBS. All chemicals were dissolved in dimethyl sulfoxide (DMSO; Sigma-Aldrich, St Louis, Mo.) for the in vitro studies. For E2 (17β-estradiol; Sigma-Aldrich) treatment, cells were cultured in phenol red-free DMEM/F12 with 5% charcoal-stripped FBS for 24 hours followed by serum-free medium for 24 hours before the experiment. The PTD-DBMP was synthesized by Peptide 2.0 Inc (Chantilly, Va.).
Immunocytochemistry. ATDCS or C28/I2 cells were seeded on glass coverslip in 12-well culture plates. The cells were washed with PBS and fixed with 4% PFA at room temperature for 15 minutes. After permeabilization with 0.1% triton-X-100 for 15 minutes and blocking with 5% BSA for 1 hour, the cells were incubated with primary antibodies specific for β-catenin (1:100) or CXXC5 l (1:200) at 4° C. overnight. […]
Immunoblot analyses. […] Immunoblot bands were analyzed using Multi-Gauge V3.0 software (Fujifilm). Points of interest (POIs) from immunoblot bands were marked and quantified using densitometry, and the background signals were subtracted from respective immunoblot signals. […]
Reverse transcription and quantitative real-time PCR. […]

With 17β-estradiol [Compound E2], the “expression of CXXC5” value (100 nM, 0-72 hours, FIG. 2A) is listed as “induced expression of CXXC5 in a time-dependent manner”. For the same compound, the β-catenin level entry (100 nM, following 24 hours) is on record as “reduced”. With `CO/N=C1/C(=C2/C(=O)Nc3cc(Cl)c(Cl)cc32)Nc2ccccc21` [KY19382, 5,6-dichloroindirubin-3′-methoxime], under “1 μM, 3 days, alginate beads, FIG. 11C”, the “mRNA levels of chondrogenic markers” value is “upregulated”.
